Data taken from US20250084061A1, “SULFONYL FUNCTIONAL COMPOUND, METHODS AND USES THEREOF” (Hubei Biopesticide Engineering Research Centre, priority 2023, published 2025).
Read-outs that look alike come from different tables or passages of the source.

What was measured:
[1] = system: Botrytis cinerea; experiment: Bactericidal (fungicidal) activity by microdilution; assay type: cell-based
[2] = system: Leptosphaeria biglobosa; experiment: as above; assay type: cell-based
[3] = system: Alternaria kikuchiana; experiment: as above; assay type: cell-based
[4] = system: Colletotrichum gloeobosporioids; experiment: as above; assay type: cell-based
[5] = system: Aphiscraccivora; experiment: Insecticidal activity, dipping method; assay type: in vivo
Procedure: (§1) The insecticidal activity of sulfonyl functional compounds in the above embodiments were tested for agricultural biological functions, and the targets of insecticidal activity were Heliothis armigera, Plutella xylostella and Aphiscraccivora.
(§2) The insecticidal activity of sulfonyl functional compounds against Aphiscraccivora was tested by the method of dipping. Mother liquors were prepared by the sulfonyl functional compounds provided in the above embodiments dissolved in ethanol, respectively. 500 mg/L, 250 mg/L or 125 mg/L test solution could be prepared by diluting the different mother liquors with a liquor that contained 0.1 mL/L of emulgator (Tween-80). Every test solution was tested twice (Rep1 and Rep2). A blank control was set up, and the activity results were compared with the blank control. The mortality rate of 0˜30%, 30˜50%, 50-70%, 70˜90%, or 90˜100% could be orderly set as 0, 3, 5, 7, or 9.

[6] = system: Rhizoctonia solani; experiment: Bactericidal (fungicidal) activity by microdilution; assay type: cell-based
[7] = system: Thanatephorus cucumeris; experiment: as above; assay type: cell-based
[8] = system: Verticillium dahliae.kieb.; experiment: as above; assay type: cell-based
[9] = system: Corynespora leaf spot of tomato; experiment: as above; assay type: cell-based
[10] = system: Fusarium culmorum; experiment: as above; assay type: cell-based
[11] = system: Magnaporthe oryzae; assay type: cell-based
[12] = system: Septoria nodorum Berk.; experiment: Bactericidal (fungicidal) activity by microdilution; assay type: cell-based
[13] = system: Pythium aphanidermatum; experiment: as above; assay type: cell-based
[14] = system: Plutella xylostella; experiment: Insecticidal activity, artificial feed surface coating method; assay type: in vivo; details: Plutella xylostella, read-out: Insecticidal activity (mortality rate grade) Plutella xylostella
Procedure: as §1
(§3) Using Heliothis armigera and Plutella xylostella as target, the insecticidal activities of sulfonyl functional compounds were tested by conventional artificial feed surface coating method. 300 microliters of artificial feed and 20 microliters of test solution were added to each well of the 24-well cell culture plate. The test solution was used in different concentrations and repeated twice (Rep1 and Rep2). The concentrations of the test solution were 500 mg/L, 250 mg/L and 125 mg/L, respectively.
as §2

[15] = system: Heliothis armigera; experiment: as above; assay type: in vivo; details: Helicoverpa armigera, read-out: Insecticidal activity (mortality rate grade) Heliothis armigera
Procedure: as §1, §3, §2

[16] = system: Fusarium oxysporum f. sp. Niveum; experiment: Bactericidal (fungicidal) activity by microdilution; assay type: cell-based

In the case of COC(=O)Nc1nc2ccccc2n1CCCS(=O)(=O)O [III-1], the “Fungicidal activity (antibacterial rate grade) Botrytis cinerea” value ([1]; 12.5 mg/L) is reported as 3 (The antibacterial rate of 0˜30% could be set as 3 if the growth of the target is normal and consistent with that of the blank control), the “Fungicidal activity (antibacterial rate grade) Botrytis cinerea” value ([1]; 25 mg/L) is reported as 3 (The antibacterial rate of 0˜30% could be set as 3 if the growth of the target is normal and consistent with that of the blank control) and the “Fungicidal activity (antibacterial rate grade) Botrytis cinerea” value ([1]; 50 mg/L) is reported as 3 (The antibacterial rate of 0˜30% could be set as 3 if the growth of the target is normal and consistent with that of the blank control). For the same compound, the “Fungicidal activity (antibacterial rate grade) Botrytis cinerea” value ([1]; 100 mg/L) was 3 (The antibacterial rate of 0˜30% could be set as 3 if the growth of the target is normal and consistent with that of the blank control), the “Fungicidal activity (antibacterial rate grade) Leptosphaeria biglobosa” value ([2]; 12.5 mg/L) was 9 (The antibacterial rate of 90˜100% could be set as 9 if the target has totally no growth) and the “Fungicidal activity (antibacterial rate grade) Leptosphaeria biglobosa” value ([2]; 25 mg/L) was 9 (The antibacterial rate of 90˜100% could be set as 9 if the target has totally no growth). For the same compound, the “Fungicidal activity (antibacterial rate grade) Leptosphaeria biglobosa” value ([2]; 50 mg/L) was 9 (The antibacterial rate of 90˜100% could be set as 9 if the target has totally no growth), the “Fungicidal activity (antibacterial rate grade) Leptosphaeria biglobosa” value ([2]; 100 mg/L) was 9 (The antibacterial rate of 90˜100% could be set as 9 if the target has totally no growth) and the “Fungicidal activity (antibacterial rate grade) Alternaria kikuchiana” value ([3]; 12.5 mg/L) was 3 (The antibacterial rate of 0˜30% could be set as 3 if the growth of the target is normal and consistent with that of the blank control). The “Fungicidal activity (antibacterial rate grade) Alternaria kikuchiana” value ([3]; 25 mg/L) was 3 (The antibacterial rate of 0˜30% could be set as 3 if the growth of the target is normal and consistent with that of the blank control), the “Fungicidal activity (antibacterial rate grade) Alternaria kikuchiana” value ([3]; 50 mg/L) was 3 (The antibacterial rate of 0˜30% could be set as 3 if the growth of the target is normal and consistent with that of the blank control) and the “Fungicidal activity (antibacterial rate grade) Alternaria kikuchiana” value ([3]; 100 mg/L) was 3 (The antibacterial rate of 0˜30% could be set as 3 if the growth of the target is normal and consistent with that of the blank control). The “Fungicidal activity (antibacterial rate grade) Colletotrichum gloeobosporioids” value ([4]; 12.5 mg/L) was 9 (The antibacterial rate of 90˜100% could be set as 9 if the target has totally no growth), the “Fungicidal activity (antibacterial rate grade) Colletotrichum gloeobosporioids” value ([4]; 25 mg/L) was 9 (The antibacterial rate of 90˜100% could be set as 9 if the target has totally no growth) and the “Fungicidal activity (antibacterial rate grade) Colletotrichum gloeobosporioids” value ([4]; 50 mg/L) was 9 (The antibacterial rate of 90˜100% could be set as 9 if the target has totally no growth). For the same compound, the “Fungicidal activity (antibacterial rate grade) Colletotrichum gloeobosporioids” value ([4]; 100 mg/L) was 9 (The antibacterial rate of 90˜100% could be set as 9 if the target has totally no growth), the “Insecticidal activity (mortality rate grade) Aphiscraccivora” value (“Insecticidal activity” for short) ([5]; 125 mg/L test solution) was 0 (mortality rate of 0˜30%) and the “Insecticidal activity” value ([5]; 250 mg/L test solution) was 0 (mortality rate of 0˜30%). For the same compound, the “Insecticidal activity” value ([5]; 500 mg/L test solution) was 0 (mortality rate of 0˜30%), the “Fungicidal activity (antibacterial rate grade) Rhizoctonia solani” value ([6]; 12.5 mg/L) was 3 (The antibacterial rate of 0˜30% could be set as 3 if the growth of the target is normal and consistent with that of the blank control) and the “Fungicidal activity (antibacterial rate grade) Rhizoctonia solani” value ([6]; 25 mg/L) was 3 (The antibacterial rate of 0˜30% could be set as 3 if the growth of the target is normal and consistent with that of the blank control). For the same compound, the “Fungicidal activity (antibacterial rate grade) Rhizoctonia solani” value ([6]; 50 mg/L) was 3 (The antibacterial rate of 0˜30% could be set as 3 if the growth of the target is normal and consistent with that of the blank control), the “Fungicidal activity (antibacterial rate grade) Rhizoctonia solani” value ([6]; 100 mg/L) was 3 (The antibacterial rate of 0˜30% could be set as 3 if the growth of the target is normal and consistent with that of the blank control) and the “Fungicidal activity (antibacterial rate grade) Thanatephorus cucumeris” value ([7]; 12.5 mg/L) was 9 (The antibacterial rate of 90˜100% could be set as 9 if the target has totally no growth). The “Fungicidal activity (antibacterial rate grade) Thanatephorus cucumeris” value ([7]; 25 mg/L) was 9 (The antibacterial rate of 90˜100% could be set as 9 if the target has totally no growth), the “Fungicidal activity (antibacterial rate grade) Thanatephorus cucumeris” value ([7]; 50 mg/L) was 9 (The antibacterial rate of 90˜100% could be set as 9 if the target has totally no growth) and the “Fungicidal activity (antibacterial rate grade) Thanatephorus cucumeris” value ([7]; 100 mg/L) was 9 (The antibacterial rate of 90˜100% could be set as 9 if the target has totally no growth). The “Fungicidal activity (antibacterial rate grade) Verticillium dahliae. kieb.” value ([8]; 12.5 mg/L) was 9 (The antibacterial rate of 90˜100% could be set as 9 if the target has totally no growth), the “Fungicidal activity (antibacterial rate grade) Verticillium dahliae. kieb.” value ([8]; 25 mg/L) was 9 (The antibacterial rate of 90˜100% could be set as 9 if the target has totally no growth) and the “Fungicidal activity (antibacterial rate grade) Verticillium dahliae. kieb.” value ([8]; 50 mg/L) was 9 (The antibacterial rate of 90˜100% could be set as 9 if the target has totally no growth). The “Fungicidal activity (antibacterial rate grade) Verticillium dahliae. kieb.” value ([8]; 100 mg/L) was 9 (The antibacterial rate of 90˜100% could be set as 9 if the target has totally no growth), the “Fungicidal activity (antibacterial rate grade) Corynespora leaf spot of tomato” value (“Fungicidal activity … of tomato” below) ([9]; 12.5 mg/L) was 3 (The antibacterial rate of 0˜30% could be set as 3 if the growth of the target is normal and consistent with that of the blank control) and the “Fungicidal activity … of tomato” value ([9]; 25 mg/L) was 3 (The antibacterial rate of 0˜30% could be set as 3 if the growth of the target is normal and consistent with that of the blank control). The “Fungicidal activity … of tomato” value ([9]; 50 mg/L) was 7 (The antibacterial rate of 70˜90% could be set as 7 if the target has small amounts of growth), the “Fungicidal activity … of tomato” value ([9]; 100 mg/L) was 7 (The antibacterial rate of 70˜90% could be set as 7 if the target has small amounts of growth) and the “Fungicidal activity (antibacterial rate grade) Fusarium culmorum” value ([10]; 12.5 mg/L) was 9 (The antibacterial rate of 90˜100% could be set as 9 if the target has totally no growth). The “Fungicidal activity (antibacterial rate grade) Fusarium culmorum” value ([10]; 25 mg/L) was 9 (The antibacterial rate of 90˜100% could be set as 9 if the target has totally no growth), the “Fungicidal activity (antibacterial rate grade) Fusarium culmorum” value ([10]; 50 mg/L) was 9 (The antibacterial rate of 90˜100% could be set as 9 if the target has totally no growth) and the “Fungicidal activity (antibacterial rate grade) Fusarium culmorum” value ([10]; 100 mg/L) was 9 (The antibacterial rate of 90˜100% could be set as 9 if the target has totally no growth). For the same compound, the “Fungicidal activity (antibacterial rate grade) Magnaporthe oryzae” value ([11]; 12.5 mg/L) was 9 (The antibacterial rate of 90˜100% could be set as 9 if the target has totally no growth), the “Fungicidal activity (antibacterial rate grade) Magnaporthe oryzae” value ([11]; 25 mg/L) was 9 (The antibacterial rate of 90˜100% could be set as 9 if the target has totally no growth) and the “Fungicidal activity (antibacterial rate grade) Magnaporthe oryzae” value ([11]; 50 mg/L) was 9 (The antibacterial rate of 90˜100% could be set as 9 if the target has totally no growth). The “Fungicidal activity (antibacterial rate grade) Magnaporthe oryzae” value ([11]; 100 mg/L) was 9 (The antibacterial rate of 90˜100% could be set as 9 if the target has totally no growth), the “Fungicidal activity (antibacterial rate grade) Septoria nodorum Berk.” value ([12]; 12.5 mg/L) was 9 (The antibacterial rate of 90˜100% could be set as 9 if the target has totally no growth) and the “Fungicidal activity (antibacterial rate grade) Septoria nodorum Berk.” value ([12]; 25 mg/L) was 9 (The antibacterial rate of 90˜100% could be set as 9 if the target has totally no growth). The “Fungicidal activity (antibacterial rate grade) Septoria nodorum Berk.” value ([12]; 50 mg/L) was 9 (The antibacterial rate of 90˜100% could be set as 9 if the target has totally no growth), the “Fungicidal activity (antibacterial rate grade) Septoria nodorum Berk.” value ([12]; 100 mg/L) was 9 (The antibacterial rate of 90˜100% could be set as 9 if the target has totally no growth) and the “Fungicidal activity (antibacterial rate grade) Pythium aphanidematum” value ([13]; 12.5 mg/L) was 3 (The antibacterial rate of 0˜30% could be set as 3 if the growth of the target is normal and consistent with that of the blank control). The “Fungicidal activity (antibacterial rate grade) Pythium aphanidematum” value ([13]; 25 mg/L) was 3 (The antibacterial rate of 0˜30% could be set as 3 if the growth of the target is normal and consistent with that of the blank control), the “Fungicidal activity (antibacterial rate grade) Pythium aphanidematum” value ([13]; 50 mg/L) was 3 (The antibacterial rate of 0˜30% could be set as 3 if the growth of the target is normal and consistent with that of the blank control) and the “Fungicidal activity (antibacterial rate grade) Pythium aphanidematum” value ([13]; 100 mg/L) was 3 (The antibacterial rate of 0˜30% could be set as 3 if the growth of the target is normal and consistent with that of the blank control). The mortality at 125 µg/mL ([14]; 125 mg/L test solution) was 0 to 30%, the mortality at 250 µg/mL ([14]; 250 mg/L test solution) was 0 to 30% and the mortality at 500 µg/mL ([14]; 500 mg/L test solution) was 0 to 30%. It also gave a mortality at 125 µg/mL ([15]; 125 mg/L test solution) of 0 to 30%, a mortality at 250 µg/mL ([15]; 250 mg/L test solution) of 0 to 30% and a mortality at 500 µg/mL ([15]; 500 mg/L test solution) of 0 to 30%. For the same compound, the “Fungicidal activity (antibacterial rate grade) Fusarium oxysporum f. sp. Niveum” value ([16]; 12.5 mg/L) was 9 (The antibacterial rate of 90˜100% could be set as 9 if the target has totally no growth), the “Fungicidal activity (antibacterial rate grade) Fusarium oxysporum f. sp. Niveum” value ([16]; 25 mg/L) was 9 (The antibacterial rate of 90˜100% could be set as 9 if the target has totally no growth) and the “Fungicidal activity (antibacterial rate grade) Fusarium oxysporum f. sp. Niveum” value ([16]; 50 mg/L) was 9 (The antibacterial rate of 90˜100% could be set as 9 if the target has totally no growth). The “Fungicidal activity (antibacterial rate grade) Fusarium oxysporum f. sp. Niveum” value ([16]; 100 mg/L) was 9 (The antibacterial rate of 90˜100% could be set as 9 if the target has totally no growth).
